Test results reported in paper PMC10287695, “Non-covalent inhibitors of thioredoxin glutathione reductase with schistosomicidal activity in vivo” (Nature Communications, 2023).
Where “and” joins values, the source holds several entries; their conditions need not be identical. Equal values may be shown once. Read-outs that look alike come from different tables or passages of the source.

Assays:
BmTrxR = BmTrxR (Brugia malayi, UniProt A0A1I9G0T9); assay: B. malayi TrxR enzyme inhibition; assay type: biochemical; conditions: for inhibition at 10 µM: 10 µM compound; for inhibition at 25 µM: 25 µM compound
Description: Recombinant TGR, human TrxR1, B. malayi (Bm)TrxR and human GR proteins were expressed and purified as described[20],[69],[79]. The codon optimized sequence for P. falciparum (PfTrxR, https://www.ncbi.nlm.nih.gov/protein/CAA60574.1/) with an N-terminal 6-His tag was synthesized and inserted into pET15b (GenScript) and expressed in BL21 (DE3) cells and purified as described for human GR[20]. […] The reaction was started with addition of an equal volume of DTNB (6 mM) and NADPH (100 µM) and the increase in A412 during the first 3 min was recorded. […] Activity was initiated with the addition of 1 mM GSSG and 100 μM NADPH and initial rates of NADPH oxidation were monitored at 340 nm. The reactions were done in triplicate. The IC50 was calculated in GraphPad Prism.

[1] = tested on: S. mansoni juvenile worms (21 days); assay: Schistosomicidal activity ex vivo, juvenile worms (21 days); assay type: cell-based; conditions: for viability at 5 µM / viability at 15 µM / viability at 30 µM: Schistosoma mansoni, 23 day S. mansoni worms, 48 HR; for viability at 5 µM: Conc. 5 µM; for viability at 15 µM: Conc. 15 µM; for viability at 30 µM: Conc. 30 µM; for LD50 ex vivo S. mansoni 21 days: juvenile worms, 48 h exposure
Description: (§1) Three-week old, female Swiss-Webster mice obtained from the Charles River were housed in the Comparative Research Center of Rush University Medical Center. Mice were infected by percutaneous tail exposure to about 200 S. mansoni or 50 S. japonicum cercaria for adult worms and about 1000 cercaria for juvenile S. mansoni worms through natural transdermal penetration of the cercariae for 1 h[81].
(§2) DMSO formulated compounds were diluted with phenol red free M199 medium or RPMI medium for NTS or juvenile and adult worms, respectively, at <1% DMSO final concentrations. NTS, juvenile and adult worms from overnight cultures were tested against compounds in triplicate. Controls were treated with DMSO alone or 5 µM AF as a positive control in appropriate medium. […] Schistosome viabilities in the presence of the compounds were assessed using this formula: % Viability = Averages of Test / Averages of DMSO Control x 100.

S. japonicum adult worms = assay: Schistosomicidal activity ex vivo, S. japonicum adult worms; assay type: cell-based
Description: as §1, §2

TGR [2] = biological target: T1, TGR (Schistosoma mansoni, UniProt Q962Y6); assay: Reversibility by jump dilution; assay type: biochemical
T1 construct: made in house
T1 sequence (Q962Y6 1-598): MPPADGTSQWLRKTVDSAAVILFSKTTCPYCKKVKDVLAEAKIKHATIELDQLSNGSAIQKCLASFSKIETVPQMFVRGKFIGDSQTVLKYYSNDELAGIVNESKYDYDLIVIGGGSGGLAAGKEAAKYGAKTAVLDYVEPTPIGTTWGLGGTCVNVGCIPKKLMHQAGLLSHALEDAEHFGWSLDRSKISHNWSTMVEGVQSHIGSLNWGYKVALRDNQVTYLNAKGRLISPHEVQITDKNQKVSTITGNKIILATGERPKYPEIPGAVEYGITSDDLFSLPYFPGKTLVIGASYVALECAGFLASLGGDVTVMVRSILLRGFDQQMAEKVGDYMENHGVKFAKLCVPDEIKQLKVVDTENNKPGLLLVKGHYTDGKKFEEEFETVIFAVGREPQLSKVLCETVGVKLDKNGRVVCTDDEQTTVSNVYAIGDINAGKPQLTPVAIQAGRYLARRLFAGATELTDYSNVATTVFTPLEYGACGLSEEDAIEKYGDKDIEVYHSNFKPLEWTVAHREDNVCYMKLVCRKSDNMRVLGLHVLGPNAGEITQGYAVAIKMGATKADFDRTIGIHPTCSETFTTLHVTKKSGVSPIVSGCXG
Description: A reaction of 370 nM TGR, 100 µM NADPH, and 250 µM inhibitor was incubated for 15 min at room temperature. A 100x dilution of the reaction was made and the activity was determined immediately and after 60 min.

TGR [3] = biological target: T1, TGR; assay: Time dependence of inhibition; assay type: biochemical; design: avg % inhib, 0.5 hr / avg % inhib, 1 hr / avg % inhib, 2 hr / avg % inhib, 3 hr / avg % inhib, 6 hr / avg % inhib, 24 hr: tested at 50 µM; conditions: panel d Time Dependence
Description: TGR was incubated at room temperature (up to 6 h) and at 4 °C for 6 to 24 h with 50 µM inhibitor and 100 µM NADPH for the indicated times. Then DTNB (3 mM) and NADPH (100 µM) were added, and the reaction was monitored at A412 for 5 min. The assay was done in triplicate.

TGR [4] = biological target: T1, TGR; assay: Thermal shift assay (TSA); assay type: binding; design: key to Avg. Tm / Tm, replicate 1-3: Tm in °C, from a 25–95 °C melt curve
Description: Samples were prepared by using a final concentration of 0.25 mg/ml TGR diluted in TGR reaction buffer to the desired volume. To evaluate reduced TGR, 500 µM NADPH was added. […] After the preincubation period, 20 µL samples were pipetted into a BioRad un-skirted PCR 96 well plate and sealed with MicroAmp^TM Optical Adhesive film. The plate was then centrifuged for 5 min at 1000 × g. TSA was carried out using a BioRad CFX Connect qPCR instrument with a melt curve setting of 25 − 95 °C, in increments of 0.5 °C/10 seconds. The SYBR green channel was used to detect fluorescence as the wavelength of flavin fluorescence overlaps with that of SYBR green. BioRad CFX Maestro 5.2 was used to analyze TSA data.

[5] = BmTrxR, mean of 3 replicates, read-out: % inhibition
[6] = BmTrxR, 50 µM compound, mean of 3 replicates, read-out: % inhibition
[7] = read-out: BmTrxR % inhibition at 50 µM, 50 µM, the highest concentration tested
[8] = D0: diluted 1:100, activity determined immediately, list for plotting
[9] = D60: diluted 1:100, activity determined after 60 min, list for plotting
[10] = before dilution (-15), list for plotting

BmTrxR, sequence (A0A1I9G0T9 entry or part of it, added parts left off): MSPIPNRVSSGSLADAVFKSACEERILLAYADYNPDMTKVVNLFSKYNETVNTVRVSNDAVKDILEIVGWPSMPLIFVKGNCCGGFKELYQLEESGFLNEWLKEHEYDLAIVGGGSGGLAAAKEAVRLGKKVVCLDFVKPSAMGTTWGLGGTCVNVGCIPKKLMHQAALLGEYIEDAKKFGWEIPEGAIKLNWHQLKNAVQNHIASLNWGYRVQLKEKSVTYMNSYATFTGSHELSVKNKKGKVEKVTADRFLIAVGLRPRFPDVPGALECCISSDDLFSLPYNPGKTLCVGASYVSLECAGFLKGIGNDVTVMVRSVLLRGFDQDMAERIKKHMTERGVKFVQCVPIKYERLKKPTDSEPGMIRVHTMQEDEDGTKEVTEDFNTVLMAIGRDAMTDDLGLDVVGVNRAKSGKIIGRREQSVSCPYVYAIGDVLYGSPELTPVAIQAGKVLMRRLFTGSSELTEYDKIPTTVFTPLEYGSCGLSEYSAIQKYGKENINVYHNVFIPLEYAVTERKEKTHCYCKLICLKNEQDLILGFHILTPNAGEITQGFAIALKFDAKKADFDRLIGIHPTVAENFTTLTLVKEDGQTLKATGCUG

CCc1ccccc1-c1nc(CN[C@@H]2C[C@@H]3C[C@H]([C@H]2C)C3(C)C)c(C)o1 [Compound 2]
inhibition at 10 µM (BmTrxR; [5]): 0.63%
inhibition at 25 µM (BmTrxR; [5]): 5.59%
inhibition at 50 µM (BmTrxR; [6]): 12.9%
inhibition at 50 µM (BmTrxR; [7]): 13%
viability at 5 µM [1]: 57%
viability at 15 µM [1]: 9.68%
viability at 30 µM [1]: 0.112%
LD50 ex vivo S. mansoni 21 days [1]: 7.2 ± 0.30 µM
LD50 ex vivo S. japonicum adult (S. japonicum adult worms; 48 h exposure): 11.1 ± 1.35 µM
viability at 5 µM (S. japonicum adult worms; Schistosoma japonicum, S. japonicum adult worms, 48 hr, Conc. 5 µM): 52.5%
viability at 15 µM (S. japonicum adult worms; Schistosoma japonicum, S. japonicum adult worms, 48 hr, Conc. 15 µM): 30.6%
viability at 30 µM (S. japonicum adult worms; Schistosoma japonicum, S. japonicum adult worms, 48 hr, Conc. 30 µM): 3.64%

Cc1oc(-c2ccc3ccccc3c2)nc1CNC1CCCCCC1 [Compound 5]
inhibition at 10 µM (BmTrxR; [5]): -0.384%
inhibition at 25 µM (BmTrxR; [5]): 3.27%
inhibition at 50 µM (BmTrxR; [6]): 9.07%
inhibition at 50 µM (BmTrxR; [7]): 9%
viability at 5 µM [1]: 65.4%
viability at 15 µM [1]: 52.1%
viability at 30 µM [1]: 36.8%
LD50 ex vivo S. mansoni 21 days [1]: 16.9 ± 2.80 µM
% Activity (ID list), D0 (TGR [2]; [8]): 94.7% and 95.5% and 104.1%
% Inhibition (ID list), D0 (TGR [2]; [8]): 5.3% and 4.5% and -4.1%
% Activity (ID list), D60 (TGR [2]; [9]): 114.3% and 110.2%
% Inhibition (ID list), D60 (TGR [2]; [9]): -11.2% and -14.3% and -10.2%
Inhibitor (rate), 0 min (TGR [2]; [0, D0]: 15 min preincubation inhibitor + TGR + NADPH, diluted 1:100, then activity determined immediately, raw rate): 0.0437 and 0.04487 and 0.04514
% Activity, 0 min (TGR [2]; [0, D0]: 15 min preincubation inhibitor + TGR + NADPH, diluted 1:100, then activity determined immediately, relative to DMSO): 94.6912% and 95.4681% and 104.129%
Inhibitor (rate), 60 min (TGR [2]; [60, D60]: 15 min preincubation inhibitor + TGR + NADPH, diluted 1:100, then activity determined after 60 min, raw rate): 0.04807 and 0.05093 and 0.05141
% Activity, 60 min (TGR [2]; [60, D60]: 15 min preincubation inhibitor + TGR + NADPH, diluted 1:100, then activity determined after 60 min, relative to DMSO): 111.196% and 114.27% and 110.156%
Inhibitor (rate), -15 (TGR [2]; [-15]: 15 min preincubation inhibitor + TGR + NADPH, then activity determined, raw rate, replicates): 0.01816 and 0.01807 and 0.01832
% Activity, -15 (TGR [2]; [-15]: 15 min preincubation inhibitor + TGR + NADPH, then activity determined, relative to DMSO, replicates): 52.6988% and 50.0277% and 51.6493%
% Activity (ID list) (TGR [2]; [10]): 52.7% and 50.0% and 51.6%
% Inhibition (ID list) (TGR [2]; [10]): 47.3% and 50.0% and 48.4%
rate, 0.5 hr (TGR [3]; 0.5 hr): 0.06403 and 0.06491 and 0.06611
avg % inhib, 0.5 hr (TGR [3]; 0.5 hr, average): 19.3871%
% inhib, 0.5 hr (TGR [3]; 0.5 hr, replicates): 19.4895% and 20.5216% and 18.1503%
rate, 1 hr (TGR [3]; 1 hr): 0.05507 and 0.05598 and 0.05641
avg % inhib, 1 hr (TGR [3]; 1 hr, average): 24.7276%
% inhib, 1 hr (TGR [3]; 1 hr, replicates): 25.2173% and 23.9092% and 25.0565%
rate, 2 hr (TGR [3]; 2 hr): 0.04485 and 0.04477 and 0.04629
avg % inhib, 2 hr (TGR [3]; 2 hr, average): 32.9849%
% inhib, 2 hr (TGR [3]; 2 hr, replicates): 32.4141% and 34.3548% and 32.1858%
rate, 3 hr (TGR [3]; 3 hr): 0.03515 and 0.03538 and 0.0359
avg % inhib, 3 hr (TGR [3]; 3 hr, average): 39.3918%
% inhib, 3 hr (TGR [3]; 3 hr, replicates): 39.6774% and 39.4903% and 39.0078%
rate, 6 hr (TGR [3]; 6 hr): 0.02164 and 0.02197 and 0.02345
avg % inhib, 6 hr (TGR [3]; 6 hr, average): 53.9938%
% inhib, 6 hr (TGR [3]; 6 hr, replicates): 54.1525% and 54.5887% and 53.2403%
rate, 24 hr (TGR [3]; 24 hr): 0.00977 and 0.01005 and 0.01035
avg % inhib, 24 hr (TGR [3]; 24 hr, average): 73.1913%
% inhib, 24 hr (TGR [3]; 24 hr, replicates): 73.884% and 73.0491% and 72.6408%
Avg. Tm (TGR [4]; TGR + 100 µM compound): 73.5
Avg. Tm, + 500 µM NADPH (TGR [4]; TGR + 100 µM compound + 500 µM NADPH): 73.5
Tm, replicate 1-3, + 500 µM NADPH (TGR [4]; TGR + 100 µM compound + 500 µM NADPH, single replicates, in °C (unit assumed)): 73.5
Tm, replicate 1-3 (TGR [4]; TGR + 100 µM compound, single replicates, in °C (unit assumed)): 73.5
effect on Tm of oxidized TGR (TGR [4]; without NADPH): Neither fast 6-9 nor slow TGR inhibitors 1, 3, 5 affected the Tm
